A short description of data set [1]: Side effects with increasing oral dose and blood levels. The data set is classed as in vivo. To be noted: as blood levels increase with increased levels of dosing. The source says:
While to date no one has been able to identify a compound which is completely without unwanted CNS side effects at all possible dosage levels, at least one compound has been identified that meets the criteria described above, namely cis-4-cyano-4-[3-(cyclopentyloxy)-4-methoxyphenyl]cyclohexane-1-carboxylic acid. […] This is particularly true with COPD. […] The controlled release formulations of this invention allow for administering in a single dosage form several times the quantity that can otherwise be administered of a PDE4 inhibitor and achieve both initial therapeutically effective blood levels and maintain these blood level for an extended period of time. PDE4 inhibitors, particularly PDE4-specific inhibitors are useful in treating other diseases especially in the areas of inflammation, (e.g., asthma, chronic obstructive pulmonary disease, inflammatory bowel disease, rheumatoid arthritis), affects related to tumor necrosis factor and to cognition impairment (e.g., multi-infarct dementia, cognitive dysfunction, or stroke). This invention is useful in treating these diseases as well. These formulations and the method descibed herein can be used for prophylactic treatment as well. Additional other therapeutic or prophylactic agents can be combined with a PDE4 inhibitor in these formulations as well.

Data set [2] concerns PDE 4. Nature of the data set: IC50 ratio: competing with [3H]R-rolipram binding to high affinity form over inhibiting catalytic activity of low affinity form. The data set is classed as biochemical. The conditions noted are these: 1 nM [3H]R-rolipram binding; 1 uM [3H]-cAMP as substrate. The source says: This invention covers controlled release formulations which contain a PDE 4 inhibitor, particularly an inhibitor that is specific for PDE 4. A preferred group of inhibitors are those that have an IC50 ratio (high/low binding) of about 0.1 or greater as further described in co-pending U.S. application Ser. No. 08/456,274 and its published counter-part PCT application serial number published Jan. 5, 1995 as WO95/00139; this application is incorporated herein in full by reference as if fully set forth herein. A preferred standard for PDE 4-specific inhibitors which can be used in this invention is one where the compound has an IC50 ratio of about 0.1 or greater; said ratio being the ratio of the IC50 value for competing with the binding of 1 nM of [^3H]R-rolipram to a form of PDE 4 which binds rolipram with a high affinity over the IC50 value for inhibiting the PDE 4 catalytic activity of a form which binds rolipram with a low affinity using 1 uM[^3H]-cAMP as the substrate.

For data set [3] the following is noted: clinical studies / indications; cited from earlier work.

Each structure is given as a SMILES string. Where two headings read alike, the source gives them in different places.

On to `COc1ccc([C@]2(C#N)CC[C@@H](C(=O)O)CC2)cc1OC1CCCC1` [cis-4-cyano-4-[3-(cyclopentyloxy)-4-methoxyphenyl]cyclohexane-1-carboxylic acid], for which the side effects result in data set [1] is “undesirable side effects such as those attributed to CNS activity begin to be manifested”. The “therapeutic ratio (IC50 ratio high/low binding)” value in data set [2] is on record as “greater than 0.1”.

Regarding `CCCCn1c(=O)c2c(ncn2CC(C)=O)n(CCCC)c1=O` [denbufylline], the side effects entry in data set [3] was “pyrosis, nausea and emesis”.

Regarding `COc1ccc(C2CNC(=O)C2)cc1OC1CCCC1` (stereo not shown) [rolipram], the side effects result in data set [3] is “psychotropic activity and produces gastrointestinal effects, e.g., pyrosis, nausea and emesis”.
